Results published in US8158106B2, “Particle immobilized coatings and uses thereof” (Surmodics, Inc., priority 2001, dated 2012).

Assays:
[1] = Entrapment of microparticles disposed on pre-irradiated photopolymer matrix spots, presence after washes; type: physicochemical; conditions: 9.9 μm silica microparticles disposed on irradiated spots, compound 2.5 mg/ml
Excerpt: Different polymeric materials were used to immobilize microparticles on a substrate. First, different polymers were disposed and treated on a substrate to form matrices. This was followed by disposing the microparticles on the substrates which were immobilized via the matrices. Four different photoreactive polymers were used to immobilize 9.9 μm diameter silica microparticles on substrates. […] Pat. No. 5,714,360 to Swan et al., issued Feb., 3, 1998, commonly owned by the assignee of the present invention, the disclosure of which is incorporated herein in its entirety), a non-polymeric photoreactive compound, was evaluated. […] Each solution was printed with 25 gauge disposable needles (PrecisionGlide Needles, Becton Dickinson and Co., Franklin Lakes, N.J.) and an x-y programmable stage (CAMM-3, Roland Digital Group, Irvine, Calif.) onto glass microscope slides which had been functionalized with silanes, as in Example 1, and onto acrylic slides (Cadillac Plastics, Minneapolis, Minn.). This printing forms a pattern of approximately 300-400 μm diameter spots on the substrates. The patterned slides were irradiated for two minutes with ultraviolet light as detailed in Example 1. After irradiation, 500 μl of an aqueous solution of 2 mg/ml 9.9 μm diameter silica microparticles (S[…], Bangs Laboratories, Fisher, Ind.) was placed over the patterned area for one minute to allow the microparticles to associate and become entrapped in the polymer matrices. The slides were then rinsed with 0.1% v/v Tween-20 aqueous solution to remove any free microparticles. Following this, the array was washed to remove loosely bound microspheres. The array was washed three times with 1×PBS (pH 7.4) with 0.1% v/v Tween-20, and then rinsed with deionized water. […] After imaging, the arrays were incubated in a solution of 0.1M TRIS and 50 mM ethanolamine (T/E) wash buffer for 1 hour at 50° C., followed by two rinses with deionized water. The microarrays were then incubated in a solution of 4×SSC/0.1% SDS for two hours at 50° C. and rinsed in deionized water. This was the final step at which imaging was done to evaluate the respective polymers.

[2] = Printed slurries of photoreactive compound and microparticles, presence after washes; type: physicochemical; conditions: slurry of 2.5 mg/ml compound and 20 mg/ml 9.9 μm silica microspheres printed, then irradiated
Method: Slurries were prepared, each containing different polymers and microparticles. These slurries were then disposed on a substrate and treated to form matrices in which microparticles were immobilized. Different polymeric materials were used to immobilize microparticles on a substrate. Four different photoreactive polymers were used to immobilize 9.9 μm diameter silica microparticles on substrates: […] BBDQ (as described in Example 4) a non-polymeric photoreactive material was also used in this Example. […] Each mixture was printed with 25 gauge disposable needles (PrecisionGlide Needles, Becton Dickinson and Co., Franklin Lakes, N.J.) and an x-y programmable stage (CAMM-3, Roland Digital Group, Irvine, Calif.) onto glass microscope slides which had been functionalized with silanes, as detailed in Example 1 and onto acrylic slides (Cadillac Plastics, Minneapolis, Minn.). This printing forms a pattern of approximately 300-400 μm diameter spots on the substrates. The coated substrates were irradiated for two minutes with ultraviolet light as detailed in Example 1. The coated substrates were then imaged with a fluorescence microscope (Olympus BX 60, Tokyo, Japan), to ensure that patterning was successful. Following this, the coated substrate was washed to remove any loosely bound microspheres. The coated substrates were washed three times with 1×PBS (pH 7.4) with 0.1% v/v Tween-20, rinsed with deionized water. At this point, each was again imaged with the fluorescence microscope to determine microsphere loss in the various photoreactive polymer matrices. After imaging, the coated substrates were incubated in a solution of T/E wash buffer for 1 hour at 50° C., followed by two rinses with deionized water. The coated substrates were then incubated in a solution of 4×SSC/0.1% SDS for two hours at 50° C. and rinsed in deionized water.

Presence of microparticles after PBS-Tween wash ([1]; Acrylic substrate): Some loss
Presence of microparticles after high salt wash (4X SSC) ([1]; Acrylic substrate): Complete loss
Presence of microparticles before washes ([1]; Acrylic substrate): Present
Presence of microparticles after PBS-Tween wash ([1]; Glass substrate): Some loss
Presence of microparticles after high salt wash (4X SSC) ([1]; Glass substrate): Complete loss
Presence of microparticles before washes ([1]; Glass substrate): Present
Presence of microparticles after PBS-Tween wash ([2]; Acrylic substrate): No loss
Presence of microparticles after high salt wash (4X SSC) ([2]; Acrylic substrate): Complete loss
Presence of microparticles before washes ([2]; Acrylic substrate): Present
Presence of microparticles after PBS-Tween wash ([2]; Glass substrate): No loss
Presence of microparticles after high salt wash (4X SSC) ([2]; Glass substrate): Complete loss
Presence of microparticles before washes ([2]; Glass substrate): Present
SMILES: C[N+](C)(CC[N+](C)(C)Cc1ccc(C(=O)c2ccccc2)cc1)Cc1ccc(C(=O)c2ccccc2)cc1.[Br-].[Br-] [BBDQ, ethylene(4-benzoylbenzyldimethylammonium)dibromide]
